Experimental data taken from ChEMBL document CHEMBL5365481, “Design, Synthesis, and Activity Evaluation of Novel Dual-Target Inhibitors with Antifungal and Immunoregulatory Properties” (J Med Chem, 2023).
Values after ≈ are worked out from the molar mass of the structure shown. Active and inactive are the calls of the source. The calls are words filed in the database; no cut-off is given here.

Test system: Cryptococcus neoformans
Test: Antifungal activity against Cryptococcus neoformans ZKCC 2209 assessed as inhibition of fungal growth incubated for 72 hrs by CLSI based liquid medium microdilution method
Assay type: functional
Settings: not given
`CC(=O)c1ccc(C(=O)N2CCC(NC(=O)c3nc(-n4cncn4)c4ccccc4n3)CC2)cc1` gave an MIC50 of 0.5 µg/mL (≈ 1.06 µM).

Test system: Pichia kudriavzevii
Test: Antifungal activity against Candida krusei ATCC 6258 assessed as inhibition of fungal growth incubated for 72 hrs by CLSI based liquid medium microdilution method
Assay type: functional
Settings: not given
For `CC(=O)c1ccc(C(=O)N2CCC(NC(=O)c3nc(-n4cncn4)c4ccccc4n3)CC2)cc1`, the MIC50 was 0.25 µg/mL (≈ 0.532 µM).

Test system: Candida tropicalis
Test: Antifungal activity against Candida tropicalis ATCC 1369 assessed as inhibition of fungal growth incubated for 72 hrs by CLSI based liquid medium microdilution method
Assay type: functional
Settings: not given
For `CC(=O)c1ccc(C(=O)N2CCC(NC(=O)c3nc(-n4cncn4)c4ccccc4n3)CC2)cc1`, the MIC50 was 0.25 µg/mL (≈ 0.532 µM).

Test system: Candida albicans
Test: Antifungal activity against fluconazole-resistant Candida albicans CaR assessed as inhibition of fungal growth incubated for 72 hrs by CLSI based liquid medium microdilution method
Assay type: functional
Settings: not given
For `CC(=O)c1ccc(C(=O)N2CCC(NC(=O)c3nc(-n4cncn4)c4ccccc4n3)CC2)cc1`, the MIC50 was 2 µg/mL (≈ 4.26 µM).

Test system: Candida albicans
Test: Antifungal activity against fluconazole-resistant Candida albicans 632 assessed as inhibition of fungal growth incubated for 72 hrs by CLSI based liquid medium microdilution method
Assay type: functional
Settings: not given
`CC(=O)c1ccc(C(=O)N2CCC(NC(=O)c3nc(-n4cncn4)c4ccccc4n3)CC2)cc1` showed an MIC50 of 1 µg/mL (≈ 2.13 µM).

Target: T1, Lanosterol 14-alpha demethylase (Candida albicans (strain SC5314 / ATCC MYA-2876) (Yeast), UniProt P10613)
T1 sequence (P10613 whole entry): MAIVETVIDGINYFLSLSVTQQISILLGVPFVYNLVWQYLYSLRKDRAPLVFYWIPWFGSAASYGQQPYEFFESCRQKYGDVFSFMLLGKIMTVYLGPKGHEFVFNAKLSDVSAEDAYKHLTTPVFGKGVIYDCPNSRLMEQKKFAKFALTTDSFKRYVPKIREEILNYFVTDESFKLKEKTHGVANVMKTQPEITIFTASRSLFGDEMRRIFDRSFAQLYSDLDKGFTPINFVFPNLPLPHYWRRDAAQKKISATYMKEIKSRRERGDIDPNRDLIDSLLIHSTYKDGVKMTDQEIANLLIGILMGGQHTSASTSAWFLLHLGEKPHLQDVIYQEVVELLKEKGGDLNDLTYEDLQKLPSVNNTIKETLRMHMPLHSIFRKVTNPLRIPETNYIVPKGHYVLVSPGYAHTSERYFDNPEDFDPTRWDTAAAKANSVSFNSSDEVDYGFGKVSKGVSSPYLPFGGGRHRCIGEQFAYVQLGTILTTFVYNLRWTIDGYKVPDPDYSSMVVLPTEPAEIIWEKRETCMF
Test: Inhibition of Candida albicans ATCC SC5314 CYP51 using lanosterol as substrate incubated for 30 mins by HPLC assay
Settings: not given
For `CC(=O)c1ccc(C(=O)N2CCC(NC(=O)c3nc(-n4cncn4)c4ccccc4n3)CC2)cc1`, the IC50 was 263 nM.

Target: T1, Lanosterol 14-alpha demethylase
Test: Inhibition of Candida albicans ATCC SC5314 CYP51 assessed as other unknown sterol content at 4 ug/ml measured after 16 hrs by GC-MS analysis (Rvb= 3.82%)
Design: scale not given: the % may be the effect or the level left
Settings: at 4 µg/mL
Compound `CC(=O)c1ccc(C(=O)N2CCC(NC(=O)c3nc(-n4cncn4)c4ccccc4n3)CC2)cc1` has an Activity of 5.74%.

Test system: Candida albicans
Test: Antifungal activity against Candida albicans ATCC SC5314 assessed as change in osmotic pressure at 1 microM/ml incubated for 48 hrs by absorbance based assay
Assay type: functional, organism-based
Settings: not given
For `CC(=O)c1ccc(C(=O)N2CCC(NC(=O)c3nc(-n4cncn4)c4ccccc4n3)CC2)cc1`, the Activity was “Active”.

Test system: Candida albicans
Test: Antifungal activity against Candida albicans ATCC SC5314 assessed as change in structural stability at 1 microM/ml incubated for 48 hrs by absorbance based assay
Assay type: functional, organism-based
Settings: not given
For `CC(=O)c1ccc(C(=O)N2CCC(NC(=O)c3nc(-n4cncn4)c4ccccc4n3)CC2)cc1`, the Activity was “Active”.

Test system: Candida albicans
Test: Induction of ROS generation in Candida albicans ATCC SC5314 assessed as increase in fluorescence intensity at 1 microM/ml incubated for 48 hrs by fluorescent microscopy
Assay type: functional, organism-based
Settings: not given
In the case of `CC(=O)c1ccc(C(=O)N2CCC(NC(=O)c3nc(-n4cncn4)c4ccccc4n3)CC2)cc1`, the Activity is reported as “Active”.

Test system: Candida albicans
Test: Induction of mitochondrial membrane depolarization in Candida albicans ATCC SC5314 assessed as polarized cells at 1 microM/ml incubated for 24 hrs by JC-1 staining based flow cytometry assay (reference value: 0.28 +/- 0.02%)
Assay type: functional
Settings: not given
`CC(=O)c1ccc(C(=O)N2CCC(NC(=O)c3nc(-n4cncn4)c4ccccc4n3)CC2)cc1` showed an Activity of 0.62%.

Test system: Candida albicans
Test: Induction of mitochondrial membrane depolarization in Candida albicans ATCC SC5314 assessed as normal cells at 1 microM/ml incubated for 24 hrs by JC-1 staining based flow cytometry assay (reference value: 94.4 +/- 1.15%)
Assay type: functional
Settings: not given
For `CC(=O)c1ccc(C(=O)N2CCC(NC(=O)c3nc(-n4cncn4)c4ccccc4n3)CC2)cc1`, the Activity was 42.6%.

Test system: Candida albicans
Test: Induction of apoptosis in Candida albicans ATCC SC5314 assessed as increase in blue fluorescence intensity at 1 microM/ml incubated for 48 hrs by Hoechst 33258/PI staining based fluorescence microscopy
Assay type: functional, organism-based
Settings: not given
With `CC(=O)c1ccc(C(=O)N2CCC(NC(=O)c3nc(-n4cncn4)c4ccccc4n3)CC2)cc1` the Activity was “Active”.

Test system: Candida albicans
Test: Induction of apoptosis in Candida albicans ATCC SC5314 assessed as early apoptotic cells at 1 microM/ml incubated for 48 hrs by Hoechst 33258/PI staining based flow cytometry (Rvb= 5.1 +/- 0.3%)
Assay type: functional
Settings: not given
`CC(=O)c1ccc(C(=O)N2CCC(NC(=O)c3nc(-n4cncn4)c4ccccc4n3)CC2)cc1` showed an Activity of 57.9%.

Test system: Candida albicans
Test: Induction of apoptosis in Candida albicans ATCC SC5314 assessed as late apoptotic cells at 1 microM/ml incubated for 48 hrs by Hoechst 33258/PI staining based flow cytometry (Rvb= 0.05 +/- 0.01%)
Assay type: functional
Settings: not given
Work on `CC(=O)c1ccc(C(=O)N2CCC(NC(=O)c3nc(-n4cncn4)c4ccccc4n3)CC2)cc1` yielded an Activity of 0.07%.

Test system: Candida albicans
Test: Induction of apoptosis in Candida albicans ATCC SC5314 assessed as necrotic cells at 1 microM/ml incubated for 48 hrs by Hoechst 33258/PI staining based flow cytometry (Rvb= 0.03 +/- 0.01%)
Assay type: functional
Settings: not given
Work on `CC(=O)c1ccc(C(=O)N2CCC(NC(=O)c3nc(-n4cncn4)c4ccccc4n3)CC2)cc1` yielded an Activity of 0.02%.

Test system: Candida albicans
Test: In vivo antifungal activity against Candida albicans ATCC SC5314 infected in BALB/c mouse assessed as increase in body weight at 10 ug, ip for 14 days
Assay type: functional, organism-based
Settings: dose 10.0 µg, time 14.0 day
With `CC(=O)c1ccc(C(=O)N2CCC(NC(=O)c3nc(-n4cncn4)c4ccccc4n3)CC2)cc1` the Activity was “Active”.

Test system: Candida albicans
Test: In vivo antifungal activity against Candida albicans ATCC SC5314 infected in BALB/c mouse assessed as shrinkage in infected region at 10 ug, ip for 14 days
Assay type: functional, organism-based
Settings: dose 10.0 µg, time 14.0 day
For `CC(=O)c1ccc(C(=O)N2CCC(NC(=O)c3nc(-n4cncn4)c4ccccc4n3)CC2)cc1`, the Activity was “Active”.

Test system: Candida albicans
Test: In vivo antifungal activity against Candida albicans ATCC SC5314 infected in BALB/c mouse assessed as disappearance of nuclei aggregation at 10 ug, ip for 14 days by GMS staining based microscopy
Assay type: functional, organism-based
Settings: dose 10.0 µg, time 14.0 day
With `CC(=O)c1ccc(C(=O)N2CCC(NC(=O)c3nc(-n4cncn4)c4ccccc4n3)CC2)cc1` the Activity was “Active”.

Test system: not listed separately
Test: Toxicity in BALB/c mouse infected with Candida albicans ATCC SC5314 assessed as morphological changes in liver at 10 ug, ip for 14 days by H and E staining based microscopy
Assay type: organism-based
Settings: in vivo, 336 h, dose 10 µg, time 14 day
In the case of `CC(=O)c1ccc(C(=O)N2CCC(NC(=O)c3nc(-n4cncn4)c4ccccc4n3)CC2)cc1`, the Activity is reported as “Non-Toxic”.

Test system: not listed separately
Test: Toxicity in BALB/c mouse infected with Candida albicans ATCC SC5314 assessed as morphological changes in spleen at 10 ug, ip for 14 days by H and E staining based microscopy
Assay type: organism-based
Settings: in vivo, 336 h, dose 10 µg, time 14 day
In the case of `CC(=O)c1ccc(C(=O)N2CCC(NC(=O)c3nc(-n4cncn4)c4ccccc4n3)CC2)cc1`, the Activity is reported as “Non-Toxic”.

Test system: not listed separately
Test: Toxicity in BALB/c mouse infected with Candida albicans ATCC SC5314 assessed as morphological changes in lung at 10 ug, ip for 14 days by H and E staining based microscopy
Assay type: organism-based
Settings: in vivo, 336 h, dose 10 µg, time 14 day
In the case of `CC(=O)c1ccc(C(=O)N2CCC(NC(=O)c3nc(-n4cncn4)c4ccccc4n3)CC2)cc1`, the Activity is reported as “Non-Toxic”.

Test system: not listed separately
Test: Toxicity in BALB/c mouse infected with Candida albicans ATCC SC5314 assessed as morphological changes in kidney at 10 ug, ip for 14 days by H and E staining based microscopy
Assay type: organism-based
Settings: in vivo, 336 h, dose 10 µg, time 14 day
With `CC(=O)c1ccc(C(=O)N2CCC(NC(=O)c3nc(-n4cncn4)c4ccccc4n3)CC2)cc1` the Activity was “Non-Toxic”.

Test system: not listed separately
Test: Toxicity in BALB/c mouse infected with Candida albicans ATCC SC5314 assessed as plasma AST level at 10 ug, ip for 14 days
Assay type: organism-based
Settings: in vivo, 336 h, dose 10 µg, time 14 day
In the case of `CC(=O)c1ccc(C(=O)N2CCC(NC(=O)c3nc(-n4cncn4)c4ccccc4n3)CC2)cc1`, the Activity is reported as 54.9 IU/L.

Test system: not listed separately
Test: Toxicity in BALB/c mouse infected with Candida albicans ATCC SC5314 assessed as plasma ALT level at 10 ug, ip for 14 days
Assay type: organism-based
Settings: in vivo, 336 h, dose 10 µg, time 14 day
For `CC(=O)c1ccc(C(=O)N2CCC(NC(=O)c3nc(-n4cncn4)c4ccccc4n3)CC2)cc1`, the Activity was 32.3 IU/L.

Test system: not listed separately
Test: Toxicity in BALB/c mouse infected with Candida albicans ATCC SC5314 assessed as plasma BUN level at 10 ug, ip for 14 days
Assay type: organism-based
Settings: in vivo, 336 h, dose 10 µg, time 14 day
`CC(=O)c1ccc(C(=O)N2CCC(NC(=O)c3nc(-n4cncn4)c4ccccc4n3)CC2)cc1` showed an Activity of 17.9 mM.

Test system: Candida albicans
Test: In vivo antifungal activity against Candida albicans ATCC SC5314 infected in BALB/c mouse assessed as decrease in COX2 expression level at 10 ug, ip for 14 days by Western blot analysis
Assay type: functional, organism-based
Settings: dose 10.0 µg, time 14.0 day
For `CC(=O)c1ccc(C(=O)N2CCC(NC(=O)c3nc(-n4cncn4)c4ccccc4n3)CC2)cc1`, the Activity was “Active”.

Test system: Candida albicans
Test: In vivo antifungal activity against Candida albicans ATCC SC5314 infected in BALB/c mouse assessed as decrease in NLRP3 expression level at 10 ug, ip for 14 days by Western blot analysis
Assay type: functional, organism-based
Settings: dose 10.0 µg, time 14.0 day
With `CC(=O)c1ccc(C(=O)N2CCC(NC(=O)c3nc(-n4cncn4)c4ccccc4n3)CC2)cc1` the Activity was “Active”.

Test system: Candida albicans
Test: In vivo antifungal activity against Candida albicans ATCC SC5314 infected in BALB/c mouse assessed as decrease in IFN-gamma expression level at 10 ug, ip for 14 days by Western blot analysis
Assay type: functional, organism-based
Settings: dose 10.0 µg, time 14.0 day
In the case of `CC(=O)c1ccc(C(=O)N2CCC(NC(=O)c3nc(-n4cncn4)c4ccccc4n3)CC2)cc1`, the Activity is reported as “Active”.

Test system: Candida albicans
Test: In vivo antifungal activity against Candida albicans ATCC SC5314 infected in BALB/c mouse assessed as decrease in COX2 expression level at 10 ug, ip for 14 days by immunohistochemical analysis
Assay type: functional, organism-based
Settings: dose 10.0 µg, time 14.0 day
With `CC(=O)c1ccc(C(=O)N2CCC(NC(=O)c3nc(-n4cncn4)c4ccccc4n3)CC2)cc1` the Activity was “Active”.

Test system: Candida albicans
Test: In vivo antifungal activity against Candida albicans ATCC SC5314 infected in BALB/c mouse assessed as decrease in IL-2 expression level at 10 ug, ip for 14 days by immunohistochemical analysis
Assay type: functional, organism-based
Settings: dose 10.0 µg, time 14.0 day
With `CC(=O)c1ccc(C(=O)N2CCC(NC(=O)c3nc(-n4cncn4)c4ccccc4n3)CC2)cc1` the Activity was “Active”.

Test system: Candida albicans
Test: In vivo antifungal activity against Candida albicans ATCC SC5314 infected in BALB/c mouse assessed as decrease in IFN-gamma expression level at 10 ug, ip for 14 days by immunohistochemical analysis
Assay type: functional, organism-based
Settings: dose 10.0 µg, time 14.0 day
With `CC(=O)c1ccc(C(=O)N2CCC(NC(=O)c3nc(-n4cncn4)c4ccccc4n3)CC2)cc1` the Activity was “Active”.

Test system: Candida albicans
Test: In vivo antifungal activity against Candida albicans ATCC SC5314 infected in BALB/c mouse assessed as decrease in PD-L1 expression level at 10 ug, ip for 14 days by Western blot analysis
Assay type: functional, organism-based
Settings: dose 10.0 µg, time 14.0 day
For `CC(=O)c1ccc(C(=O)N2CCC(NC(=O)c3nc(-n4cncn4)c4ccccc4n3)CC2)cc1`, the Activity was “Active”.
